Reference: patent US20230117034A1, “PYRAZOLOTRIAZINES” (Bayer Aktiengesellschaft, priority 2019, published 2023)

Assays:
[1] = tested on: BRCA1 mRNA expression in MDA-MB-231 cells; test: qRT-PCR assay: BRCA1 mRNA expression in MDA-MB-231; type: cell-based, human; settings: Homo sapiens, MDA-MB-231, Inhibition of BRCA1 mRNA expression in MDA-MB-231 cells; median; read-out: RTqPCR-MDA-MB-231, IC50, BRCA1 (median)
How it was run: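 Human breast cancer cells, 200,000/well, were treated with test agents for 24 h without interruption after a 24 h settling period. Gene expression came from qPCR on cDNA made from 600 ng RNA, relative to GAPDH.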

[2] = tested on: CAL-120, human breast adenocarcinoma cells; test: Proliferation assay CAL-120 (crystal violet, 4 days); type: cell-based; settings: Homo sapiens, CAL-120, 96 h, CAL-120 cells, median, read-out: Prolif-CAL-120, IC50-[mol/l] (median)
How it was run: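 Crystal violet proliferation read-out after 4 days of compound exposure (0.01-10 µmol/L; solvent 0.1% DMSO). Extinction at 595 nm, set between zero-point (0%) and vehicle (100%), fitted with 4 parameters to give IC50.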

CDK2/CycE = biological target: T1, CDK2/CycE (Homo sapiens, UniProt P24941); test: CDK2/CycE kinase assay (TR-FRET, 2 mM ATP); type: biochemical; settings: 2 mM ATP (high ATP); median; read-out: CDK2/CyclinE, 2 mM ATP (high ATP), IC50 (median)
T1 construct: purchased ProQinase GmbH (Freiburg, Germany); host or cells: insect cells (Sf9)
How it was run: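 Biotin-peptide phosphorylation (0.75 µM substrate, 2 mM ATP final, 25 min, 22 °C) by Sf9-expressed GST-CDK2/GST-CycE, after a 15-min compound pre-binding step. Inhibition scaled between enzyme-free (100%) and uninhibited (0%) wells.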

| SMILES | IC50 [1] [nM] | IC50 [2] [nM] | IC50 (CDK2/CycE) [nM] |
| --- | --- | --- | --- |
| Fc1ccc(-c2nnc(CNc3nc(N4CCOCC4)nc4c(Br)cnn34)[nH]2)c(F)c1 [Example 41, 8-bromo-N-{[5-(2,4-difluorophenyl)-4H-1,2,4-triazol-3-yl]methyl}-2-(morpholin-4-yl)pyrazolo[1,5-a][1,3,5]triazin-4-amine] | 3670 | 11800 | > 1630 |
| COc1cccc(-c2nnc(CNc3nc(N4CCOCC4)nc4c(Br)cnn34)[nH]2)c1 [Example 50, 8-bromo-N-{[5-(3-methoxyphenyl)-4H-1,2,4-triazol-3-yl]methyl}-2-(morpholin-4-yl)pyrazolo[1,5-a][1,3,5]triazin-4-amine] | 18.2 | 29.5 | 2330 |
| Fc1ccc2[nH]c(CNc3nc(N4CCOCC4)nc4c(-c5nccs5)cnn34)nc2c1F [Example 413, N-[(4,5-difluoro-1H-benzimidazol-2-yl)methyl]-2-(morpholin-4-yl)-8-(1,3-thiazol-2-yl)pyrazolo [1,5-a][1,3,5]triazin-4-amine] | 82.7 | 69.9 | > 20000 |
| Cc1cnn2c(NCc3nc4c(F)c(F)ccc4[nH]3)nc(N(C)CC(C)(C)O)nc12 [Example 395, 1-[(4-{[(4,5-difluoro-1H-benzimidazol-2-yl)methyl]amino}-8-methylpyrazolo[1,5-a][1,3,5]triazin-2-yl)(methyl)amino]-2-methylpropan-2-ol] | 14.7 | 11.1 | > 20000 |
| CCc1cnn2c(NCc3nc4c(F)c(F)ccc4[nH]3)nc(N3CCOCC3)nc12 [Example 432, N-[(4,5-difluoro-1H-benzimidazol-2-yl)methyl]-8-ethyl-2-(morpholin-4-yl)pyrazolo[1,5-a][1,3,5]triazin-4-amine] | 1.76 | 3.66 | 7570 |
| Fc1ccc2[nH]c(CNc3nc(N4CCOCC4)nc4c(C(F)(F)F)cnn34)nc2c1F [Example 426, N-[(4,5-difluoro-1H-benzimidazol-2-yl)methyl]-2-(morpholin-4-yl)-8-(trifluoromethyl)pyrazolo [1,5-a][1,3,5]triazin-4-amine] | 3.21 | 3.57 | 17300 |
| Brc1cnn2c(NCc3nc4ccccc4[nH]3)nc(N3CC4(COC4)C3)nc12 [Example 48, N-[(1H-benzimidazol-2-yl)methyl]-8-bromo-2-(2-oxa-6-azaspiro[3.3]heptan-6-yl)pyrazolo[1,5-a][1,3,5]triazin-4-amine] | 94.2 | 120 | 12600 |
| CN1CCN(c2nc(NCc3nc4c(F)c(F)ccc4[nH]3)n3ncc(CC(F)(F)F)c3n2)CC1 [Example 437, N-[(4,5-difluoro-1H-benzimidazol-2-yl)methyl]-2-(4-methylpiperazin-1-yl)-8-(2,2,2-trifluoroethyl) pyrazolo[1,5-a][1,3,5]triazin-4-amine] | 6.19 | 10.9 | > 20000 |
| Clc1cc2nc(CNc3nc(N4CCOCC4)nc4c(-c5ccnnc5)cnn34)[nH]c2cc1Cl.O=C(O)C(F)(F)F [Example 440, trifluoroacetic acid N-[(5,6-dichloro-1H-benzimidazol-2-yl)methyl]-2-(morpholin-4-yl)-8-(pyridazin-4-yl)pyrazolo[1,5-a][1,3,5]triazin-4-amine] | 2.7 | 7.39 | > 20000 |
| Fc1ccc2[nH]c(CNc3nc(N4CCN5CCC4CC5)nc4c(C(F)(F)F)cnn34)nc2c1F [Example 407, 2-(1,4-diazabicyclo[3.2.2]nonan-4-yl)-N-[(4,5-difluoro-1H-benzimidazol-2-yl)methyl]-8-(trifluoromethyl)pyrazolo[1,5-a][1,3,5]triazin-4-amine] | 1.6 | 0.927 | > 20000 |
| C[C@H]1COCCN1c1nc(NCc2nc3ccccc3[nH]2)n2ncc(Br)c2n1 [Example 57, N-[(1H-benzimidazol-2-yl)methyl]-8-bromo-2-[(3S)-3-methylmorpholin-4-yl]pyrazolo[1,5-a][1,3,5]triazin-4-amine] | 1.52 | 3.14 | 1220 |
| CCc1cnn2c(NCc3nc4ccccc4[nH]3)nc(N3CCN(C)CC3)nc12 [Example 434, N-[(1H-benzimidazol-2-yl)methyl]-8-ethyl-2-(4-methylpiperazin-1-yl)pyrazolo[1,5-a][1,3,5] triazin-4-amine] | 10.5 | 10.2 | 6370 |
| Brc1cnn2c(NCc3nc4ccccc4[nH]3)nc(N3CCCC3)nc12 [Example 47, N-[(1H-benzimidazol-2-yl)methyl]-8-bromo-2-(pyrrolidin-1-yl)pyrazolo[1,5-a][1,3,5]triazin-4-amine] | 23.2 | 23.9 | 4660 |
| Cc1cccc(-c2nnc(CNc3nc(N4CCOCC4)nc4c(Br)cnn34)[nH]2)c1 [Example 40, 8-bromo-N-{[5-(3-methylphenyl)-4H-1,2,4-triazol-3-yl]methyl}-2-(morpholin-4-yl)pyrazolo[1,5-a][1,3,5]triazin-4-amine] | 14.6 | 23.1 | 2110 |
| Brc1cnn2c(NCc3nc4ccccc4[nH]3)nc(N3CCCCC3)nc12 [Example 46, N-[(1H-benzimidazol-2-yl)methyl]-8-bromo-2-(piperidin-1-yl)pyrazolo[1,5-a][1,3,5]triazin-4-amine] | 12.5 | 238 | 1850 |
| CN1CCN(c2nc(NCc3nc4c(F)c(F)ccc4[nH]3)n3ncc(C4CC4(F)F)c3n2)CC1 (centres unmarked) [Example 429, N-[(4,5-difluoro-1H-benzimidazol-2-yl)methyl]-8-(2,2-difluorocyclopropyl)-2-(4-methylpiperazin-1-yl)pyrazolo[1,5-a][1,3,5]triazin-4-amine] | 7.47 | 8.86 | > 20000 |
| CC(C)c1cnn2c(NCc3ncc(-c4ccccc4)[nH]3)nc(N3CCCCC3)nc12 [Example 36, N-[(5-phenyl-1H-imidazol-2-yl)methyl]-2-(piperidin-1-yl)-8-(propan-2-yl)pyrazolo[1,5-a][1,3,5]triazin-4-amine] | 128 |  | > 20000 |
| O=C(O)C(F)(F)F.c1ccc2[nH]c(CNc3nc(N4CCOCC4)nc4c(-c5cncs5)cnn34)nc2c1 [Example 441, trifluoroacetic acid-N-[(1H-benzimidazol-2-yl)methyl]-2-(morpholin-4-yl)-8-(1,3-thiazol-5-yl)pyrazolo[1,5-a][1,3,5]triazin-4-amine (1/1)] | 3.39 | 7.69 | > 20000 |
| Brc1cnn2c(NCc3nnc(-c4ccccc4)[nH]3)nc(N3CCCCC3)nc12 [Example 49, 8-bromo-N-[(5-phenyl-4H-1,2,4-triazol-3-yl)methyl]-2-(piperidin-1-yl)pyrazolo[1,5-a][1,3,5]triazin-4-amine] | 69.2 | 44 | 2290 |
| Fc1cccc(-c2nnc(CNc3nc(N4CCOCC4)nc4c(Br)cnn34)[nH]2)c1 [Example 44, 8-bromo-N-{[5-(3-fluorophenyl)-4H-1,2,4-triazol-3-yl]methyl}-2-(morpholin-4-yl)pyrazolo[1,5-a][1,3,5]triazin-4-amine] | 2.95 | 1.46 | 1130 |
| CCc1cnn2c(NCc3nc4c(OC)cccc4[nH]3)nc(N3CCOCC3)nc12 [Example 433, 8-ethyl-N-[(4-methoxy-1H-benzimidazol-2-yl)methyl]-2-(morpholin-4-yl)pyrazolo[1,5-a][1,3,5]triazin-4-amine] | 10.6 | 13.1 | 1780 |
| C[C@@H]1COCCN1c1nc(NCc2nc3ccccc3[nH]2)n2ncc(Br)c2n1 [Example 56, N-[(1H-benzimidazol-2-yl)methyl]-8-bromo-2-[(3R)-3-methylmorpholin-4-yl]pyrazolo[1,5-a][1,3,5]triazin-4-amine] | 21.8 | 17.3 | 2020 |
| CC(C)c1cnn2c(NCc3ncc(-c4ccccc4)[nH]3)nc(N(C)CC(C)(C)O)nc12 [Example 35, 2-methyl-1-{methyl[4-{[(5-phenyl-1H-imidazol-2-yl)methyl]amino}-8-(propan-2-yl)pyrazolo[1,5-a][1,3,5]triazin-2-yl]amino}propan-2-ol] | 39 |  | 1700 |
| CC(C)c1cnn2c(NCc3nnc(-c4ccccc4)[nH]3)nc(N(C)CC(C)(C)O)nc12 [Example 39, 2-methyl-1-{methyl[4-{[(5-phenyl-4H-1,2,4-triazol-3-yl)methyl]amino}-8-(propan-2-yl)pyrazolo[1,5-a][1,3,5]triazin-2-yl]amino}propan-2-ol] | 92.3 |  | 2110 |
| CCNc1nc(NCc2ncc(-c3ccccc3)[nH]2)n2ncc(C(C)C)c2n1 [Example 34, N^2-ethyl-N^4-[(5-phenyl-1H-imidazol-2-yl)methyl]-8-(propan-2-yl)pyrazolo[1,5-a][1,3,5]triazine-2,4-diamine] | 10 |  | 6180 |
